Results published in patent publication US20240002326A1, “COMPOUNDS AND USE THEREOF IN METHODS OF TREATMENT” (The University of Queensland, priority 2016, published 2024).
“Also recorded” adds a separate entry of the source.

Legend:
SOX18-RBPJ interaction = SOX18-RBPJ interaction (Homo sapiens (Human), UniProt P35713); test: ALPHAScreen SOX18-RBPJ protein-protein interaction; format: binding
Text: Proteins were genetically encoded with enhanced GFP (GFP), mCherry and cMyc (myc) tags, and cloned into cell free expression Gateway destination vectors: N-terminal GFP tagged (pCellFree_G03), N-terminal Cherry-cMyc (pCellFree_G07) and C-terminal Cherry-cMyc tagged (pCellFree_G08) (Gagoski et al., 2015). Human RBPJ (BC020780) and MEF2C (BC026341) Open Reading Frames (ORFs) were sourced from the Human ORFeome collection, version 1.1 and 5.1, and the Human Orfeome collaboration OCAA collection (Open Biosystems), as previously described (Sierecki et al., 2013) and cloned at the ARVEC facility, UQ Diamantina Institute. The entry clones pDONOR223 or pENTR201 vectors were exchanged with the ccdB gene in the expression plasmid by LR recombination (Life Technologies, Australia). The full-length human SOX18 gene was synthesized and the transfer to vectors was realized using Gateway PCR cloning. Translation competent Leishmania tarentolae extract (LTE) was prepared as previously described (Kovtun et al., 2011, Mureev et al., 2009). Protein pairs were co-expressed by adding 30 nM of GFP template plasmid and 60 nM of Cherry template plasmid to LTE and incubating for 3 hours at 27° C.
ALPHAScreen was performed as previously described (Sierecki et al., 2014, Sierecki et al., 2013). […] Percentage of interaction was calculated as: (I_cpd/I_DMSO)×100 from 3 independent experiments.
(§1) ALPHAScreen was performed as previously described (Sierecki et al., 2014, Sierecki et al., 2013), using the cMyc detection kit and Proxiplate-384 Plus plates (PerkinElmer). The LTE lysate co-expressing the proteins of interest was diluted in buffer A (25 mM HEPES, 50 mM NaCl). For the assay, 12.5 μL (0.4 μg) of Anti-cMyc coated Acceptor Beads in buffer B (25 mM HEPES, 50 mM NaCl, 0.001% NP40, 0.001% casein) were aliquoted into each well. This was followed by the addition of 2 μL of diluted sample, at different concentration, and 2 μL of biotin labeled GFP-Nanotrap in buffer A. The plates were incubated for 45 min at room temperature, then adding 2 μL (0.4 μg) of streptavidin-coated Donor Beads diluted in buffer A, and incubation in the dark for 45 min at room temperature. The ALPHAScreen signal was measured on an Envision Plate Reader (PerkinElmer), using manufacturer's recommended settings (λexc=680/30 nm for 0.18 s, λem=570/100 nm after 37 ms). The resulting bell-shaped curve is an indication of a positive interaction, while a flat line reflects a lack of interaction between the proteins. The measurement of each protein pair was repeated in triplicate.
(§2) I is the highest signal level (top of the hook effect curve) and Ineg is the lowest (background) signal level. The signals were normalized to the Iref signal obtained for the strongest interaction. […] Percentage of interaction was calculated as: […]
The ALPHA-Screen Assay was performed as previously described (Sierecki et al. 2014), using the cMyc detection kit and Proxiplate-384 Plus plates (PerkinElmer). A serial dilution of each sample was measured. The LTE lysate co-expressing the proteins of interest was diluted in buffer A (25 mM HEPES, 50 mM NaCl). For the assay, 12.5 μL (0.4 μg) of Anti-cMyc coated Acceptor Beads in buffer B (25 mM HEPES, 50 mM NaCl, 0.001% NP40, casein) were aliquoted into each well. This was followed by the addition of 2 μL of diluted sample and 2 μL of biotin labeled GFP-Nanotrap in buffer A. The plate was incubated for 45 min at RT. Afterward, 2 μL (0.4 μg) of Streptavidin coated Donor Beads diluted in buffer A, were added, followed by incubation in the dark for 45 min at RT. The ALPHA-Screen signal was obtained on an Envision Multilabel Plate Reader (PerkinElmer), using the manufacturer's recommended settings (excitation: 680/30 nm for 0.18 s, emission: 570/100 nm after 37 ms). The resulting bell-shaped curve is an indication of a positive interaction, while a flat line reflects a lack of interaction between the proteins. […]

SOX18-SOX18 homodimer = SOX18-SOX18 homodimer (Homo sapiens (Human), UniProt P35713); test: ALPHAScreen SOX18-SOX18 homodimerization; format: binding; conditions: 5 uM
SOX18-SOX18 homodimer, sequence (P35713 whole entry): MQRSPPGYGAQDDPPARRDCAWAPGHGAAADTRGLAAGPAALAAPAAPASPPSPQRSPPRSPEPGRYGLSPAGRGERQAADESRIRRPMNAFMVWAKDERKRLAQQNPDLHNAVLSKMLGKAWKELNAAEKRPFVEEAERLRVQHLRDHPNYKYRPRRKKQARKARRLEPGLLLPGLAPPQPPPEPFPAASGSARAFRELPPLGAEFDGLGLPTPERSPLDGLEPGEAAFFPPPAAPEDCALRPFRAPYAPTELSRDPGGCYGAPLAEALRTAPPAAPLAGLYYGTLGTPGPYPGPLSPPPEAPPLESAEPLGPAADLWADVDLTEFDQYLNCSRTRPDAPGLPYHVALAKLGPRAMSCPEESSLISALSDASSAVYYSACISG
Experimental: as §1, §2
The ALPHA-Screen Assay was performed as previously described (Sierecki et al. 2014), using the cMyc detection kit and Proxiplate-384 Plus plates (PerkinElmer). A serial dilution of each sample was measured. The LTE lysate co-expressing the proteins of interest was diluted in buffer A (25 mM HEPES, 50 mM NaCl). For the assay, 12.5 μL (0.4 μg) of Anti-cMyc coated Acceptor Beads in buffer B (25 mM HEPES, 50 mM NaCl, 0.001% NP40, casein) were aliquoted into each well. This was followed by the addition of 2 μL of diluted sample and 2 μL of biotin labeled GFP-Nanotrap in buffer A. The plate was incubated for 45 min at RT. Afterward, 2 μL (0.4 μg) of Streptavidin coated Donor Beads diluted in buffer A, were added, followed by incubation in the dark for 45 min at RT. The ALPHA-Screen signal was obtained on an Envision Multilabel Plate Reader (PerkinElmer), using the manufacturer's recommended settings (excitation: 680/30 nm for 0.18 s, emission: 570/100 nm after 37 ms). The resulting bell-shaped curve is an indication of a positive interaction, while a flat line reflects a lack of interaction between the proteins. The measurement of each protein pair was repeated a minimum of three times using separate plates. The Binding Index was calculated as: BI=[(I−I_neg)/(I_ref−I_neg)]×100
For PPI disruption assay, protein pairs expressed in LTE were incubated for 1 h with 100 μM Sm4 or DMSO alone (0.7% DMSO final). 100 μM Sm4 or DMSO was also added to buffer B. PPI disruption was calculated as: (1−I_Sm4/I_DMSO)×100.
For IC50 determination, the assay was identical but a dilution range of Sm4 was used (0.3 to 300 μM). Percentage of interaction was calculated as: I_Sm4/1 DMSO×100. Data from at least 3 independent experiments were fitted in GraphPad Prism (RRID: SCR_007370) version 6.0 using 3-parameter non-linear regression.

SOX18-RBPJ interaction, sequence (P35713 whole entry): as above

Structure (SMILES)	IC50 (SOX18-RBPJ interaction; ALPHAScreen, read-out: SOX18-RBPJ interaction disruption IC50) [µM]	inhibitory activity in respect of SOX18-SOX18 homodimerization (SOX18-SOX18 homodimer)	SOX18-RBPJ protein-protein binding inhibition at 5 μM (SOX18-RBPJ interaction)
O=C(O)c1ccccc1Nc1cccc(C(F)(F)F)c1 [Flufenamic acid, reference compound]	~444	–	–
CCN(CC)C(=O)c1c(O)cc(O)cc1CCc1ccc2ccccc2c1 [Sm26, N,N,diethyl-2,4-hydroxy-6-(2-(naphthalen-2-yl)ethyl)benzamide]	–	some inhibitory activity	highly active; also recorded: moderately active
Oc1cc(CCc2ccccc2)cc(O)c1O [Sm40, 5-phenethylbenzene-1,2,3-triol]	–	some inhibitory activity	highly active
COc1cc(C)cc(/C=C/c2ccc3ccccc3c2)c1C(=O)O [Sm34, (E)-2-methoxy-4-methyl-6-(2-(naphthalen-2-yl)vinyl)benzoic acid]	–	some inhibitory activity	highly active
